Experimental data: the supplement of paper PMC10307832

Assays:
Experiment in all cases: relative viability (nuclei count vs DMSO), 5 days (fraction); higher = more cells survive
[1] = tested on: NCI-H650
How it was run: (§1)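 Medians of duplicate plates are given as relative viability. That measure is the nuclei count in treated wells divided by the count in vehicle wells. Counts were taken on 4× images of lung cancer cell lines in 1536-well plates, 5 days after pin-tool dosing the day after seeding with one drug alone or a fixed anchor-drug dose plus five library-drug doses (not always all listed) in √10 steps.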

[2] = tested on: UMC-11
How it was run: as §1

[3] = tested on: NCI-H838
How it was run: as §1

[4] = tested on: HCC-15
How it was run: as §1

[5] = tested on: NCI-H460
How it was run: as §1

[6] = tested on: HARA
How it was run: as §1

[7] = tested on: NCI-H2342
How it was run: as §1

[8] = tested on: NCI-H1651
How it was run: as §1

[9] = tested on: NCI-H522
How it was run: as §1

[10] = tested on: NCI-H2347
How it was run: as §1

[11] = tested on: COR-L23
How it was run: as §1

[12] = tested on: NCI-H358
How it was run: as §1

[13] = tested on: NCI-H2009
How it was run: as §1

[14] = tested on: EPLC-272H
How it was run: as §1

[15] = tested on: PC-14
How it was run: as §1

[16] = tested on: NCI-H2085
How it was run: as §1

[17] = tested on: NCI-H2126
How it was run: as §1

[18] = tested on: LU99A
How it was run: as §1

[19] = tested on: NCI-H1915
How it was run: as §1

[20] = tested on: LC-2-ad
How it was run: as §1

[21] = tested on: NCI-H1993
How it was run: as §1

[22] = tested on: HCC-78
How it was run: as §1

[23] = tested on: SW 1573
How it was run: as §1

Molecule `C[C@@H]1CN(CC(=O)Nc2ccc3c(c2)Cc2cccc(-c4cc(=O)cc(N5CCOCC5)o4)c2S3)C[C@H](C)O1` + Nc1nc2[nH]cc(CCc3ccc(C(=O)N[C@@H](CCC(=O)O)C(=O)O)cc3)c2c(=O)[nH]1 [Pemetrexed] (partner 0.2 µM) has a relative viability ([1]; first compound 0.04 µM) of 0.925, a relative viability ([1]; first compound 0.1265 µM) of 0.866 and a relative viability ([1]; first compound 0.4 µM) of 0.943. For the same molecule, the relative viability ([1]; first compound 4 µM) was 0.812, the relative viability ([2]; first compound 0.04 µM) was 0.757 and the relative viability ([2]; first compound 0.1265 µM) was 0.764. It also gave a relative viability ([2]; first compound 0.4 µM) of 0.767, a relative viability ([2]; first compound 4 µM) of 0.674 and a relative viability ([3]; first compound 0.04 µM) of 0.262. The relative viability ([3]; first compound 0.1265 µM) was 0.244, the relative viability ([3]; first compound 0.4 µM) was 0.243 and the relative viability ([3]; first compound 4 µM) was 0.236. For the same molecule, the relative viability ([4]; first compound 0.04 µM) was 0.212, the relative viability ([4]; first compound 0.1265 µM) was 0.203 and the relative viability ([4]; first compound 0.4 µM) was 0.224. The relative viability ([4]; first compound 4 µM) was 0.212, the relative viability ([5]; first compound 0.04 µM) was 0.0638 and the relative viability ([5]; first compound 0.1265 µM) was 0.0634. It also gave a relative viability ([5]; first compound 0.4 µM) of 0.0696, a relative viability ([5]; first compound 4 µM) of 0.0616 and a relative viability ([6]; first compound 0.04 µM) of 0.287. It also gave a relative viability ([6]; first compound 0.1265 µM) of 0.24, a relative viability ([6]; first compound 0.4 µM) of 0.192 and a relative viability ([6]; first compound 4 µM) of 0.214. For the same molecule, the relative viability ([7]; first compound 0.04 µM) was 0.745, the relative viability ([7]; first compound 0.1265 µM) was 0.777 and the relative viability ([7]; first compound 0.4 µM) was 0.767. It also gave a relative viability ([7]; first compound 4 µM) of 0.729, a relative viability ([8]; first compound 0.04 µM) of 0.549 and a relative viability ([8]; first compound 0.1265 µM) of 0.565. It also gave a relative viability ([8]; first compound 0.4 µM) of 0.569, a relative viability ([8]; first compound 4 µM) of 0.52 and a relative viability ([9]; first compound 0.04 µM) of 0.691. The relative viability ([9]; first compound 0.1265 µM) was 0.89, the relative viability ([9]; first compound 0.4 µM) was 1.11 and the relative viability ([9]; first compound 4 µM) was 1.11. For the same molecule, the relative viability ([10]; first compound 0.04 µM) was 0.413, the relative viability ([10]; first compound 0.1265 µM) was 0.408 and the relative viability ([10]; first compound 0.4 µM) was 0.413. For the same molecule, the relative viability ([10]; first compound 4 µM) was 0.381, the relative viability ([11]; first compound 0.04 µM) was 0.189 and the relative viability ([11]; first compound 0.1265 µM) was 0.204. It also gave a relative viability ([11]; first compound 0.4 µM) of 0.203, a relative viability ([11]; first compound 4 µM) of 0.206 and a relative viability ([12]; first compound 0.04 µM) of 0.179. For the same molecule, the relative viability ([12]; first compound 0.1265 µM) was 0.154, the relative viability ([12]; first compound 0.4 µM) was 0.162 and the relative viability ([12]; first compound 4 µM) was 0.157. It also gave a relative viability ([13]; first compound 0.04 µM) of 1.06, a relative viability ([13]; first compound 0.1265 µM) of 0.968 and a relative viability ([13]; first compound 0.4 µM) of 1.05. The relative viability ([13]; first compound 4 µM) was 0.849, the relative viability ([14]; first compound 0.04 µM) was 0.311 and the relative viability ([14]; first compound 0.1265 µM) was 0.371. For the same molecule, the relative viability ([14]; first compound 0.4 µM) was 0.313, the relative viability ([14]; first compound 4 µM) was 0.269 and the relative viability ([15]; first compound 0.04 µM) was 0.119. It also gave a relative viability ([15]; first compound 0.1265 µM) of 0.141, a relative viability ([15]; first compound 0.4 µM) of 0.127 and a relative viability ([15]; first compound 4 µM) of 0.116. The relative viability ([16]; first compound 0.04 µM) was 0.961, the relative viability ([16]; first compound 0.1265 µM) was 0.936 and the relative viability ([16]; first compound 0.4 µM) was 0.935. The relative viability ([16]; first compound 4 µM) was 0.759, the relative viability ([17]; first compound 0.04 µM) was 0.668 and the relative viability ([17]; first compound 0.1265 µM) was 0.657. The relative viability ([17]; first compound 0.4 µM) was 0.77, the relative viability ([17]; first compound 4 µM) was 0.695 and the relative viability ([18]; first compound 0.04 µM) was 0.184. It also gave a relative viability ([18]; first compound 0.1265 µM) of 0.15, a relative viability ([18]; first compound 0.4 µM) of 0.21 and a relative viability ([18]; first compound 4 µM) of 0.222. The relative viability ([19]; first compound 0.04 µM) was 0.478, the relative viability ([19]; first compound 0.1265 µM) was 0.426 and the relative viability ([19]; first compound 0.4 µM) was 0.413. For the same molecule, the relative viability ([19]; first compound 4 µM) was 0.358, the relative viability ([20]; first compound 0.04 µM) was 0.272 and the relative viability ([20]; first compound 0.1265 µM) was 0.248. The relative viability ([20]; first compound 0.4 µM) was 0.291, the relative viability ([20]; first compound 4 µM) was 0.249 and the relative viability ([21]; first compound 0.04 µM) was 0.63. The relative viability ([21]; first compound 0.1265 µM) was 0.587, the relative viability ([21]; first compound 0.4 µM) was 0.542 and the relative viability ([21]; first compound 4 µM) was 0.578. For the same molecule, the relative viability ([22]; first compound 0.04 µM) was 0.809, the relative viability ([22]; first compound 0.1265 µM) was 0.84 and the relative viability ([22]; first compound 0.4 µM) was 0.889. For the same molecule, the relative viability ([22]; first compound 4 µM) was 0.917, the relative viability ([23]; first compound 0.04 µM) was 0.935 and the relative viability ([23]; first compound 0.1265 µM) was 0.855. The relative viability ([23]; first compound 0.4 µM) was 0.903 and the relative viability ([23]; first compound 4 µM) was 0.822.
